Test results taken from patent publication US5840684A, “Glycopeptide antibiotic derivatives” (Eli Lilly and Company, priority 1995, dated 1998).
In brackets after ≈: the same amount, converted by molar mass.

Legend:
[1] = test system: Staphylococcus aureus S13E; assay type: cell-based
Method: (§1) The MIC's were determined using a standard broth micro-dilution assay.

[2] = test system: Staphylococcus aureus SA1199B; assay type: cell-based
Method: as §1

[3] = test system: Entercoccus faecium 276; assay: broth micro-dilution MIC; assay type: cell-based
Method: as §1

[4] = test system: Staphylococcus aureus 446; assay: broth micro-dilution MIC; assay type: cell-based
Method: as §1

[5] = test system: Staphylococcus aureus 447; assay: broth micro-dilution MIC; assay type: cell-based
Method: as §1

[6] = test system: Staphylococcus aureus 491; assay: broth micro-dilution MIC; assay type: cell-based
Method: as §1

[7] = test system: Staphylococcus aureus SA1199; assay: broth micro-dilution MIC; assay type: cell-based
Method: as §1

[8] = test system: Staphylococcus aureus X400; assay: broth micro-dilution MIC; assay type: cell-based
Method: as §1

[9] = test system: Staphylococcus aureus X778; assay: broth micro-dilution MIC; assay type: cell-based
Method: as §1

[10] = test system: Entercoccus faecium 180; assay: broth micro-dilution MIC; assay type: cell-based; conditions: Entercoccus faecium 180
Method: (§2) The formula I compounds have in vitro and in vivo activity against Gram-positive pathogenic bacteria. The MIC's were determined using a standard broth micro-dilution assay.

[11] = test system: Entercoccus faecium 2041; assay: broth micro-dilution MIC; assay type: cell-based; conditions: Entercoccus faecium 2041
Method: as §2

[12] = test system: Enterococcus gallinarum 245; assay: broth micro-dilution MIC; assay type: cell-based; conditions: Enterococcus gallinarum 245
Method: as §2

[13] = test system: Staphylococcus epidermidis 270; assay: broth micro-dilution MIC; assay type: cell-based
Method: as §2

[14] = test system: Staphylococcus haemolyticus 105; assay: broth micro-dilution MIC; assay type: cell-based
Method: as §2

[15] = test system: Staphylococcus haemolyticus 415; assay: broth micro-dilution MIC; assay type: cell-based
Method: as §2

[16] = test system: vancomycin-resistant enterococci; assay: broth micro-dilution, mean geometric MIC; assay type: cell-based, Enterococcus faecium and Enterococcus faecalis; conditions: enterococci, 24-hour incubation
[17] = test system: vancomycin-susceptible enterococci; assay: broth micro-dilution, mean geometric MIC; assay type: cell-based, Enterococcus faecium and Enterococcus faecalis; conditions: enterococci, 24-hour incubation
[18] = test system: Entercoccus faecium 180-1; assay: broth micro-dilution MIC; assay type: cell-based
Method: as §1

[19] = test system: Staphylococcus aureus SA1199A; assay: broth micro-dilution MIC; assay type: cell-based
Method: as §1

[20] = test system: Streptococcus pyogenes C203; assay: broth micro-dilution MIC; assay type: cell-based
Method: as §1

[21] = test system: Streptococcus pneumoniae P1; assay: broth micro-dilution MIC; assay type: cell-based
Method: as §2

[22] = test system: Staphylococcus aureus 489; assay: broth micro-dilution MIC; assay type: cell-based
Method: as §1

Structure (SMILES)	MIC [1]	MIC [3]	MIC [4]	MIC [5]	MIC [6]	MIC [7]	MIC [8]	MIC [9]	MIC [10]	MIC [11]	MIC [12]	MIC [13]	MIC [14]	MIC [15]	mean geometric MIC, Vancomycin Resistant Strains [16]	mean geometric MIC, Vancomycin Sensitive Strains [17]	MIC [18]	MIC [19]	MIC [20]	MIC [21]	also measured
CNC(CC(C)C)C(=O)NC1C(=O)NC(CC(N)=O)C(=O)NC2C(=O)NC3C(=O)NC(C(=O)NC(C(=O)O)c4cc(O)cc(O)c4-c4cc3ccc4O)C(OC3CC(C)(N)C(O)C(C)O3)c3ccc(c(Cl)c3)Oc3cc2cc(c3OC2OC(CO)C(O)C(O)C2OC2CC(C)(NCc3ccc(-c4ccc(OC)cc4)s3)C(O)C(C)O2)Oc2ccc(cc2Cl)C1O (stereo not shown) [Compound 71]	1 µg/mL (≈ 0.557 µM)	2 µg/mL (≈ 1.11 µM)	4 µg/mL (≈ 2.23 µM)	4 µg/mL (≈ 2.23 µM)	2 µg/mL (≈ 1.11 µM)	1 µg/mL (≈ 0.557 µM)	1 µg/mL (≈ 0.557 µM)	2 µg/mL (≈ 1.11 µM)	4 µg/mL (≈ 2.23 µM)	1 µg/mL (≈ 0.557 µM)	8 µg/mL (≈ 4.46 µM)	2 µg/mL (≈ 1.11 µM)	16 µg/mL (≈ 8.91 µM)	8 µg/mL (≈ 4.46 µM)	11 µg/mL	0.57 µg/mL					MIC [2]: 4 µg/mL (≈ 2.23 µM)
CNC(CC(C)C)C(=O)NC1C(=O)NC(CC(N)=O)C(=O)NC2C(=O)NC3C(=O)NC(C(=O)NC(C(=O)O)c4cc(O)cc(O)c4-c4cc3ccc4O)C(OC3CC(C)(N)C(O)C(C)O3)c3ccc(c(Cl)c3)Oc3cc2cc(c3OC2OC(CO)C(O)C(O)C2OC2CC(C)(NCc3ccc(NC(=O)c4cccc(F)c4)cc3)C(O)C(C)O2)Oc2ccc(cc2Cl)C1O (stereo not shown) [Compound 194]	≤ 0.06 µg/mL		≤ 0.06 µg/mL	0.5 µg/mL (≈ 0.275 µM)	≤ 0.06 µg/mL	0.5 µg/mL (≈ 0.275 µM)	≤ 0.06 µg/mL	0.5 µg/mL (≈ 0.275 µM)	≤ 0.06 µg/mL	≤ 0.06 µg/mL	2 µg/mL (≈ 1.1 µM)	0.5 µg/mL (≈ 0.275 µM)	1 µg/mL (≈ 0.55 µM)	2 µg/mL (≈ 1.1 µM)	2.4 µg/mL	0.083 µg/mL	≤ 0.06 µg/mL	≤ 0.06 µg/mL	≤ 0.06 µg/mL	≤ 0.06 µg/mL	
CNC(CC(C)C)C(=O)NC1C(=O)NC(CC(N)=O)C(=O)NC2C(=O)NC3C(=O)NC(C(=O)NC(C(=O)O)c4cc(O)cc(O)c4-c4cc3ccc4O)C(OC3CC(C)(N)C(O)C(C)O3)c3ccc(c(Cl)c3)Oc3cc2cc(c3OC2OC(CO)C(O)C(O)C2OC2CC(C)(NCC3=CCC4CC3C4(C)C)C(O)C(C)O2)Oc2ccc(cc2Cl)C1O (stereo not shown) [Compound 170]		0.5 µg/mL (≈ 0.29 µM)	2 µg/mL (≈ 1.16 µM)	0.5 µg/mL (≈ 0.29 µM)	0.5 µg/mL (≈ 0.29 µM)	1 µg/mL (≈ 0.579 µM)	0.5 µg/mL (≈ 0.29 µM)	1 µg/mL (≈ 0.579 µM)	2 µg/mL (≈ 1.16 µM)	≤ 0.06 µg/mL	4 µg/mL (≈ 2.32 µM)	1 µg/mL (≈ 0.579 µM)	4 µg/mL (≈ 2.32 µM)	4 µg/mL (≈ 2.32 µM)	8.0 µg/mL	0.22 µg/mL	≤ 0.06 µg/mL	≤ 0.06 µg/mL	≤ 0.06 µg/mL	≤ 0.06 µg/mL	
CNC(CC(C)C)C(=O)NC1C(=O)NC(CC(N)=O)C(=O)NC2C(=O)NC3C(=O)NC(C(=O)NC(C(=O)O)c4cc(O)cc(O)c4-c4cc3ccc4O)C(OC3CC(C)(N)C(O)C(C)O3)c3ccc(c(Cl)c3)Oc3cc2cc(c3OC2OC(CO)C(O)C(O)C2OC2CC(C)(NCc3ccc(N4CCC(C)CC4)cc3)C(O)C(C)O2)Oc2ccc(cc2Cl)C1O (stereo not shown) [Compound 129]		0.125 µg/mL (≈ 0.0702 µM)	2 µg/mL (≈ 1.12 µM)	1 µg/mL (≈ 0.562 µM)	0.5 µg/mL (≈ 0.281 µM)				4 µg/mL (≈ 2.25 µM)	≤ 0.06 µg/mL	0.125 µg/mL (≈ 0.0702 µM)	1 µg/mL (≈ 0.562 µM)	4 µg/mL (≈ 2.25 µM)	4 µg/mL (≈ 2.25 µM)	27 µg/mL	1.52 µg/mL	≤ 0.06 µg/mL	≤ 0.06 µg/mL	≤ 0.06 µg/mL	≤ 0.06 µg/mL	MIC [22]: ≤ 0.06 µg/mL
CCN(CC)CCOc1ccc(CNC2(C)CC(OC3C(Oc4c5cc6cc4Oc4ccc(cc4Cl)C(OC4CC(C)(N)C(O)C(C)O4)C4NC(=O)C(NC(=O)C6NC(=O)C(CC(N)=O)NC(=O)C(NC(=O)C(CC(C)C)NC)C(O)c6ccc(c(Cl)c6)O5)c5ccc(O)c(c5)-c5c(O)cc(O)cc5C(C(=O)O)NC4=O)OC(CO)C(O)C3O)OC(C)C2O)cc1 (stereo not shown) [Compound 83]	0.125 µg/mL (≈ 0.0695 µM)		1 µg/mL (≈ 0.556 µM)	2 µg/mL (≈ 1.11 µM)	0.5 µg/mL (≈ 0.278 µM)	2 µg/mL (≈ 1.11 µM)	2 µg/mL (≈ 1.11 µM)	0.5 µg/mL (≈ 0.278 µM)	8 µg/mL (≈ 4.45 µM)	0.5 µg/mL (≈ 0.278 µM)	0.5 µg/mL (≈ 0.278 µM)	2 µg/mL (≈ 1.11 µM)	2 µg/mL (≈ 1.11 µM)	4 µg/mL (≈ 2.22 µM)	54 µg/mL	1.7 µg/mL	0.125 µg/mL (≈ 0.0695 µM)		≤ 0.06 µg/mL	≤ 0.06 µg/mL	MIC [2]: 1 µg/mL (≈ 0.556 µM)
CCCCCC1CCC(c2ccc(CNC3(C)CC(OC4C(Oc5c6cc7cc5Oc5ccc(cc5Cl)C(OC5CC(C)(N)C(O)C(C)O5)C5NC(=O)C(NC(=O)C7NC(=O)C(CC(N)=O)NC(=O)C(NC(=O)C(CC(C)C)NC)C(O)c7ccc(c(Cl)c7)O6)c6ccc(O)c(c6)-c6c(O)cc(O)cc6C(C(=O)O)NC5=O)OC(CO)C(O)C4O)OC(C)C3O)cc2)CC1 (stereo not shown) [Compound 34]				8 µg/mL (≈ 4.36 µM)	8 µg/mL (≈ 4.36 µM)				4 µg/mL (≈ 2.18 µM)	8 µg/mL (≈ 4.36 µM)	4 µg/mL (≈ 2.18 µM)				4.0 µg/mL	3.4 µg/mL	2 µg/mL (≈ 1.09 µM)	2 µg/mL (≈ 1.09 µM)			MIC [22]: 8 µg/mL (≈ 4.36 µM)
CNC(CC(C)C)C(=O)NC1C(=O)NC(CC(N)=O)C(=O)NC2C(=O)NC3C(=O)NC(C(=O)NC(C(=O)O)c4cc(O)cc(O)c4-c4cc3ccc4O)C(OC3CC(C)(N)C(O)C(C)O3)c3ccc(c(Cl)c3)Oc3cc2cc(c3OC2OC(CO)C(O)C(O)C2OC2CC(C)(NCc3ccc(N4CCN(C)CC4)cc3)C(O)C(C)O2)Oc2ccc(cc2Cl)C1O (stereo not shown) [Compound 146]	0.5 µg/mL (≈ 0.281 µM)	1 µg/mL (≈ 0.562 µM)	0.5 µg/mL (≈ 0.281 µM)	2 µg/mL (≈ 1.12 µM)	1 µg/mL (≈ 0.562 µM)	≤ 0.06 µg/mL	0.5 µg/mL (≈ 0.281 µM)	≤ 0.06 µg/mL	8 µg/mL (≈ 4.49 µM)	0.5 µg/mL (≈ 0.281 µM)	0.5 µg/mL (≈ 0.281 µM)	2 µg/mL (≈ 1.12 µM)	2 µg/mL (≈ 1.12 µM)	4 µg/mL (≈ 2.25 µM)		1.5 µg/mL	≤ 0.06 µg/mL	≤ 0.06 µg/mL	≤ 0.06 µg/mL	≤ 0.06 µg/mL	MIC [2]: ≤ 0.06 µg/mL
